Measured values: PMC10580393, “The Psychedelic N,N-Dipropyltryptamine Prevents Seizures in a Mouse Model of Fragile X Syndrome via a Mechanism that Appears Independent of Serotonin and Sigma1 Receptors” (ACS Pharmacology & Translational Science, 2023)
pEC50, pKi: −log10 of the molar value.

Columns and labels:
Conditions in all cases: read-out: DPT
[1] = molecular target: T1, human 5-HT2A receptor (h5-HT2AR) (Homo sapiens, UniProt P28223); assay: radioligand competition binding, cell membranes
T1 construct: gene HTR2A; receptor cDNA (cDNA Resource Center) transiently expressed in HEK293T; with Rluc8-Galphaq, Gbeta3, GFP2-Ggamma9 for function
T1 sequence (P28223 whole entry): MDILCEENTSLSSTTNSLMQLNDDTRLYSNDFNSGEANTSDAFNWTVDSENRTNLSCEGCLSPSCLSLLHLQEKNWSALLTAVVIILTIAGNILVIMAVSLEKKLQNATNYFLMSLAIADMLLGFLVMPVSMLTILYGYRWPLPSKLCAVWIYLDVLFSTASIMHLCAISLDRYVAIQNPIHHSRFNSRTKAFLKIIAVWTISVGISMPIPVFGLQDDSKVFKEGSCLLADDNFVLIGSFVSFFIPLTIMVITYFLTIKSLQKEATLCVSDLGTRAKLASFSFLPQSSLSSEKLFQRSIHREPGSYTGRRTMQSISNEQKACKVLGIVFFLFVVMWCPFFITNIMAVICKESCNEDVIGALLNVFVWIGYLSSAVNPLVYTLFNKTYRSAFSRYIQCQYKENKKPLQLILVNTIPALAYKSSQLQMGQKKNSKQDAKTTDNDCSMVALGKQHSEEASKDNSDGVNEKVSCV
Text: radioligand competition binding, cell membranes on human 5-HT2A receptor (h5-HT2AR)

[2] = molecular target: T1, human 5-HT2A receptor (h5-HT2AR); assay: TRUPATH BRET2 G protein activation assay, HEK293T; assay type: cell-based
Text: TRUPATH BRET2 G protein activation assay, HEK293T on human 5-HT2A receptor (h5-HT2AR)

[3] = molecular target: T2, human 5-HT1A receptor (h5-HT1AR) (Homo sapiens, UniProt P08908); assay: TRUPATH BRET2 G protein activation assay, HEK293T; assay type: cell-based
T2 construct: gene HTR1A; receptor cDNA (cDNA Resource Center) transiently expressed in HEK293T; with Rluc8-Galphai3, Gbeta3, GFP2-Ggamma9 for function
T2 sequence (P08908 whole entry): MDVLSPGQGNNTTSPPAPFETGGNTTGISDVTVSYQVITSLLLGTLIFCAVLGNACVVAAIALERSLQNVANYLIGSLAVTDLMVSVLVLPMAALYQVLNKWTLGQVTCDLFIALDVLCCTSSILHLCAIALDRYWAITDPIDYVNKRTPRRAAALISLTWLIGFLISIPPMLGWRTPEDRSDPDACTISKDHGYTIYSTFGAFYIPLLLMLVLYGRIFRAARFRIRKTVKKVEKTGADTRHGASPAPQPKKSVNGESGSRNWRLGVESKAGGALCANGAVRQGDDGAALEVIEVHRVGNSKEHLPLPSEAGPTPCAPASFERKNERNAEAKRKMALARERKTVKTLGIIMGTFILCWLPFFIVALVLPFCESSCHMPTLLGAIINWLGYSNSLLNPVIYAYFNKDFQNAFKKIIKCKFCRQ
Text: TRUPATH BRET2 G protein activation assay, HEK293T on human 5-HT1A receptor (h5-HT1AR)

[4] = molecular target: T2, human 5-HT1A receptor (h5-HT1AR); assay: radioligand competition binding, cell membranes
Text: radioligand competition binding, cell membranes on human 5-HT1A receptor (h5-HT1AR)

[5] = molecular target: T3, human 5-HT1B receptor (h5-HT1BR) (Homo sapiens, UniProt P28222); assay: TRUPATH BRET2 G protein activation assay, HEK293T; assay type: cell-based
T3 construct: gene HTR1B; receptor cDNA (cDNA Resource Center) transiently expressed in HEK293T; with Rluc8-Galphai3, Gbeta3, GFP2-Ggamma9 for function
T3 sequence (P28222 whole entry): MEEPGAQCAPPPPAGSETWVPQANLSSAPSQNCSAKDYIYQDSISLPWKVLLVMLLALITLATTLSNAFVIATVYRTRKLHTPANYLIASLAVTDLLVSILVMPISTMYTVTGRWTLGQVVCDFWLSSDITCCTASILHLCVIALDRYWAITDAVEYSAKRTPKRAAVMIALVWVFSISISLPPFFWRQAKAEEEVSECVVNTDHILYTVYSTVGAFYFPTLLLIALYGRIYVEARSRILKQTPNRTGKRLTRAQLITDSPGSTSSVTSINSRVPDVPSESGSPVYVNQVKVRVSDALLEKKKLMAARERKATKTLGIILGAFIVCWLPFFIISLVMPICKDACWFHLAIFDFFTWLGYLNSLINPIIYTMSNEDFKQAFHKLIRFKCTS
Text: TRUPATH BRET2 G protein activation assay, HEK293T on human 5-HT1B receptor (h5-HT1BR)

[6] = molecular target: T3, human 5-HT1B receptor (h5-HT1BR); assay: radioligand competition binding, cell membranes
Text: radioligand competition binding, cell membranes on human 5-HT1B receptor (h5-HT1BR)

CCCN(CCC)CCc1c[nH]c2ccccc12 [DPT]
pKi [1]: 8.52 | pEC50 [2]: 6.35 | pEC50 [3]: 5.61 | pKi [4]: 5.78 | pEC50 [5]: 5.92 | pKi [6]: 5.09
